Assay results: US9932637B2, “Genetic polymorphisms associated with cardiovascular disorders and drug response, methods of detection and uses thereof” (CELERA CORPORATION, priority 2003, dated 2018)

Tested on: patients with prior myocardial infarction (CARE study)
Assay: CARE: association of SNPs with pravastatin treatment in cardiovascular events prevention (logistic regression, odds ratio pravastatin vs placebo by genotype; Table 8)
Type: in vivo, human
Conditions: for Any Report of Stroke Prior to or During CARE, n/total (%) / Cardiovascular Mortality, n/total (%) / Fatal Atherosclerotic Cardiovascular Disease, n/total (%) / Fatal Coronary Heart Disease, n/total (%) / Fatal/Non-fatal Atherosclerotic CV Disease, n/total (%) / Total Coronary Heart Disease Events, n/total (%) / Total Mortality, n/total (%) / Hosp. for Cardiovascular Disease, n/total (%) / Total Cardiovascular Disease Events, n/total (%): Prava arm; for Odds ratio pravastatin vs placebo: TGFB1 hCV8708473, All Patients
Text: In order to identify genetic markers associated with acute coronary events (e.g. MI, stroke, unstable angina, congestive heart failure, etc.) or response to statin treatment for the prevention of coronary events, samples from the Cholesterol and Recurrent Events (CARE) study (a randomized multicentral double-blinded trial on secondary prevention of acute coronary events with pravastatin) (Sacks et al., 1991, Am. J. Cardiol. 68: 1436-1446) were genotyped. A well-documented myocardial infarction (MI) was one of the enrollment criteria for entry into the CARE study. Patients were enrolled in the CARE trial from 80 participating study centers. […] Patients were randomized to receive either 40 mg of pravastatin once daily or a matching placebo. The primary endpoint of the trial was death from coronary heart disease and the median duration of follow-up was 5.0 years (range, 4.0 to 6.2 years). […] Secondary endpoints of other related cardiovascular or metabolic disease events, and changes in clinical variables were also recorded in pravastatin-treated and placebo groups. All individuals included in the study had signed a written informed consent form and the study protocol was approved by the respective Institutional Review Boards (IRBs).
For genotyping SNPs in CARE patient samples, DNA was extracted from blood samples using conventional DNA extraction methods such as the QIA-amp kit from Qiagen. Genotypes were obtained on an ABI PRISM® 7900HT Sequence Detection PCR system (Applied Biosystems, Foster City, Calif.) by kinetic allele-specific PCR, similar to the method described by Germer et al. (Germer S., Holland M. J., Higuchi R. 2000, Genome Res. 10: 258-266).
Statistical analysis for association of SNPs with pravastatin treatment in cardiovascular events prevention (Table 8) was carried out using an overall logistic regression model that included an intercept, a parameter for the effect of a genotype containing two rare alleles versus a genotype containing no rare alleles, a parameter for the effect of a genotype containing one rare allele versus a genotype containing no rare alleles, a parameter for the effect of use of pravastatin versus the use of placebo, and parameters for the interaction effects between SNP genotypes and pravastatin use. The test of the overall model is a chi-square test with two degrees of freedom for analyses containing all three genotypes, and one degree of freedom for analyses containing two genotypes.
Effect sizes were estimated through odds ratios (pravastatin group versus placebo) for carriers of each genotype (groups of 0, 1, and 2 minor allele carriers). The effect was considered to be significant if p-value for testing whether any of the interactions between SNP genotypes and pravastatin use were <0.05. […] Odds ratios less than one indicate that the specific SNP allele has a protective effect and odds ratios greater than one indicate that the specific SNP allele has an adverse effect.

[1] = TGFB1 hCV8708473, All Patients, 1 Rare Allele
[2] = TGFB1 hCV8708473, All Patients, 2 Rare Alleles
[3] = TGFB1 hCV22272997, All Patients, 0 Rare Alleles
[4] = TGFB1 hCV22272997, All Patients, 1 Rare Allele
[5] = TGFB1 hCV22272997, All Patients, 2 Rare Alleles
[6] = TLR5 hCV15871020, All Patients, 0 Rare Alleles
[7] = TLR5 hCV15871020, All Patients, 1 Rare Allele

How did the “Any Report of Stroke Prior to or During CARE, n/total (%)” value [1] turn out when `CC[C@H](C)C(=O)O[C@H]1C[C@H](O)C=C2C=C[C@H](C)[C@H](CC[C@@H](O)C[C@@H](O)CC(=O)O)[C@H]21` [pravastatin] was run?
Its value is “(3.8%)”.

What about the “Cardiovascular Mortality, n/total (%)” value [1] of the same compound?
Its value is “(1.7%)”.

What about the “Fatal Atherosclerotic Cardiovascular Disease, n/total (%)” value [1] of the same compound?
Its value is “(1.7%)”.

What about the “Fatal Coronary Heart Disease, n/total (%)” value [1] of the same compound?
Its value is “(1.2%)”.

And the “Fatal/Non-fatal Atherosclerotic CV Disease, n/total (%)” value [1]?
The value was “(27.9%)”.

And the “Total Coronary Heart Disease Events, n/total (%)” value [1]?
Its value is “(23.9%)”.

What about the “Total Mortality, n/total (%)” value [1] of the same compound?
Its value is “(3.8%)”.

And the “Any Report of Stroke Prior to or During CARE, n/total (%)” value [2]?
Its value is “(3.7%)”.

What about the “Cardiovascular Mortality, n/total (%)” value [2] of the same compound?
Its value is “(3.1%)”.

What about the “Fatal Atherosclerotic Cardiovascular Disease, n/total (%)” value [2] of the same compound?
Its value is “(3.1%)”.

And the “Fatal Coronary Heart Disease, n/total (%)” value [2]?
Its value is “(2.5%)”.

What about the “Fatal/Non-fatal Atherosclerotic CV Disease, n/total (%)” value [2] of the same compound?
Its value is “(38.3%)”.

And the “Total Coronary Heart Disease Events, n/total (%)” value [2]?
The value was “(37.0%)”.

And the “Total Mortality, n/total (%)” value [2]?
The value was “(4.9%)”.

And the “Odds ratio pravastatin vs placebo” value (Any Report of Stroke Prior to or During CARE, 0 rare alleles)?
Its value is 1.35.

And the “Odds ratio pravastatin vs placebo” value (Any Report of Stroke Prior to or During CARE, 1 rare allele)?
Its value is 0.68.

And the “Odds ratio pravastatin vs placebo” value (Any Report of Stroke Prior to or During CARE, 2 rare alleles)?
Its value is 0.38.

What about the “Odds ratio pravastatin vs placebo” value (Cardiovascular Mortality, 0 rare alleles) of the same compound?
Its value is 1.95.

And the “Odds ratio pravastatin vs placebo” value (Cardiovascular Mortality, 1 rare allele)?
Its value is 0.30.

And the “Odds ratio pravastatin vs placebo” value (Cardiovascular Mortality, 2 rare alleles)?
Its value is 0.48.

What about the “Odds ratio pravastatin vs placebo” value (Fatal Atherosclerotic Cardiovascular Disease, 0 rare alleles) of the same compound?
The value was 1.90.

What about the “Odds ratio pravastatin vs placebo” value (Fatal Atherosclerotic Cardiovascular Disease, 1 rare allele) of the same compound?
The value was 0.30.

And the “Odds ratio pravastatin vs placebo” value (Fatal Atherosclerotic Cardiovascular Disease, 2 rare alleles)?
Its value is 0.48.

What about the “Odds ratio pravastatin vs placebo” value (Fatal Coronary Heart Disease, 0 rare alleles) of the same compound?
Its value is 1.79.

And the “Odds ratio pravastatin vs placebo” value (Fatal Coronary Heart Disease, 1 rare allele)?
Its value is 0.26.

And the “Odds ratio pravastatin vs placebo” value (Fatal Coronary Heart Disease, 2 rare alleles)?
The value was 0.49.

What about the “Odds ratio pravastatin vs placebo” value (Fatal/Non-fatal Atherosclerotic CV Disease, 0 rare alleles) of the same compound?
The value was 0.94.

What about the “Odds ratio pravastatin vs placebo” value (Fatal/Non-fatal Atherosclerotic CV Disease, 1 rare allele) of the same compound?
Its value is 0.59.

What about the “Odds ratio pravastatin vs placebo” value (Fatal/Non-fatal Atherosclerotic CV Disease, 2 rare alleles) of the same compound?
Its value is 0.81.

What about the “Odds ratio pravastatin vs placebo” value (Total Coronary Heart Disease Events, 0 rare alleles) of the same compound?
Its value is 0.91.

What about the “Odds ratio pravastatin vs placebo” value (Total Coronary Heart Disease Events, 1 rare allele) of the same compound?
Its value is 0.58.

And the “Odds ratio pravastatin vs placebo” value (Total Coronary Heart Disease Events, 2 rare alleles)?
Its value is 1.00.

And the “Odds ratio pravastatin vs placebo” value (Total Mortality, 0 rare alleles)?
The value was 1.50.

What about the “Odds ratio pravastatin vs placebo” value (Total Mortality, 1 rare allele) of the same compound?
Its value is 0.48.

What about the “Odds ratio pravastatin vs placebo” value (Total Mortality, 2 rare alleles) of the same compound?
The value was 0.65.

And the “Cardiovascular Mortality, n/total (%)” value [3]?
The value was “(5.6%)”.

What about the “Fatal Atherosclerotic Cardiovascular Disease, n/total (%)” value [3] of the same compound?
Its value is “(5.6%)”.

And the “Fatal Coronary Heart Disease, n/total (%)” value [3]?
The value was “(5.2%)”.

And the “Total Coronary Heart Disease Events, n/total (%)” value [3]?
Its value is “(32.5%)”.

And the “Total Mortality, n/total (%)” value [3]?
Its value is “(7.4%)”.

What about the “Cardiovascular Mortality, n/total (%)” value [4] of the same compound?
Its value is “(2.5%)”.

And the “Fatal Atherosclerotic Cardiovascular Disease, n/total (%)” value [4]?
The value was “(2.4%)”.

What about the “Fatal Coronary Heart Disease, n/total (%)” value [4] of the same compound?
The value was “(2.0%)”.

What about the “Total Coronary Heart Disease Events, n/total (%)” value [4] of the same compound?
Its value is “(25.0%)”.

And the “Total Mortality, n/total (%)” value [4]?
The value was “(4.6%)”.

And the “Cardiovascular Mortality, n/total (%)” value [5]?
The value was “(2.5%)”.

And the “Fatal Atherosclerotic Cardiovascular Disease, n/total (%)” value [5]?
Its value is “(2.5%)”.

What about the “Fatal Coronary Heart Disease, n/total (%)” value [5] of the same compound?
The value was “(2.0%)”.

And the “Total Coronary Heart Disease Events, n/total (%)” value [5]?
The value was “(33.2%)”.

And the “Total Mortality, n/total (%)” value [5]?
The value was “(3.7%)”.

What about the “Fatal/Non-fatal Atherosclerotic CV Disease, n/total (%)” value [6] of the same compound?
The value was “(34.4%)”.

What about the “Hosp. for Cardiovascular Disease, n/total (%)” value [6] of the same compound?
The value was “(40.8%)”.

What about the “Total Cardiovascular Disease Events, n/total (%)” value [6] of the same compound?
The value was “(42.0%)”.

And the “Total Coronary Heart Disease Events, n/total (%)” value [6]?
Its value is “(30.5%)”.

And the “Fatal/Non-fatal Atherosclerotic CV Disease, n/total (%)” value [7]?
The value was “(32.1%)”.

What about the “Hosp. for Cardiovascular Disease, n/total (%)” value [7] of the same compound?
The value was “(40.8%)”.

What about the “Total Cardiovascular Disease Events, n/total (%)” value [7] of the same compound?
The value was “(41.8%)”.

And the “Total Coronary Heart Disease Events, n/total (%)” value [7]?
Its value is “(27.2%)”.
